Assays:
Type in all cases: biochemical
[1] = biological target: AAK1 (amino acids T27-A365) (Homo sapiens (Human), UniProt Q2M2I8); experiment: AAK1 pSENs assay; details: ratio of AAK1 pSENs activity to GAK pSENs activity
In short: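 Untagged, biotinylated E. coli-expressed AAK1 at 20 nM preincubated with compound 15 min at 25° C in HEPES pH 7.5 buffer with 10 mM MgCl2 and 1 mM DTT. Reaction started with AQT0759 and ATP, added as 30 uM and 70 uM solutions in equal volume.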

[2] = biological target: BIKE (amino acids S38-E345) (K320A, K321A) (Homo sapiens (Human), UniProt Q9NSY1, K320A/K321A); experiment: BIKE pSENs assay
Chain of BIKE (amino acids S38-E345) (K320A, K321A) (Q9NSY1 38-345 K320A/K321A): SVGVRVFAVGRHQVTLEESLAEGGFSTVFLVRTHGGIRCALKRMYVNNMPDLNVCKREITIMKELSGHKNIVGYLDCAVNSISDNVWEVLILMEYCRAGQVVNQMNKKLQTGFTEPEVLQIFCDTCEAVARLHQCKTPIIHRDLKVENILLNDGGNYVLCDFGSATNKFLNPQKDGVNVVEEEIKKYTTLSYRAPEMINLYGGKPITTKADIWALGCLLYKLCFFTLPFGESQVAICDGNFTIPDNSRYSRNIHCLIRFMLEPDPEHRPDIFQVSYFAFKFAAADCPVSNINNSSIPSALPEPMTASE
Procedure: The recombinant proteins were independently expressed in Esherichia coli BL21(DE3) cells cultured in Luria-Bertani (LB) medium until OD600 reached 0.6-0.8, then cooled to 15° C., and supplemented with 0.5 mM isopropyl 1-thio-D-galactopyranoside (IPTG) induce protein expression 16 h. Cells were harvested and resuspended in lysis buffer (50 mM HEPES pH 7.5, 500 mM NaCl, 5 mM imidazole, 5% glycerol, 0.5 mM Tris (2-carboxyethyl) phosphine (TCEP), cOmplete Protease Inhibitor Tablet (Roche)) and lysed by microfluidics high pressure homogenizer (UH-06, Union-Biotech). Proteins were purified using Ni-Affinity chromatography (His FF column, Bestchrom) and eluted stepwise in binding buffer with 20-300 mM imidazole. Removal of the hexahistidine tag was performed at 4° C. overnight using recombinant TEV protease and reacted with BirA to obtain the corresponding biotinylated-AAK1. BIKE or GAK proteins. Further separated in the reverse Strep column (Strep-Tactin® XT, IBA). The Biotin elution sample was collected containing untagged biotinylated protein was then purified by Ion-exchange chromatography (Mono Q 10/100 GL, Cytiva) and Size-exclusion chromatography (HiLoad 16/600 Superdex 200 pg, Cytiva). The pure protein was stored in a storage buffer 50 mM HEPES (pH 7.5), 300 mM NaCl, 5% glycerol at −80° C. Protein were characterized by SDS-PAGE. LC-MS and aSEC.
BIKE protein was dissolved at 20 nM in 1× enzyme solution (50 mM HEPES pH7.5, 10 mM MgCl2, 1 mM DTT, 1% glycerol, 0.5 mM EGTA, 0.01% Briji35, 0.02% BSA) and 12.5 ul was incubated with 250 nl DMSO or 250 nl compound in DMSO at 25° C. for 15 min. The reaction was started by addition of 12.5 ul of 30 uM AQT0759 (Assayquant, CSKS-AQT0759B) and 40 uM ATP which were diluted in 1× substrate dilution buffer (50 mM HEPES pH7.5, 10 mM MgCl2. 1 mM DTT, 1% glycerol, 0.5 mM EGTA, 0.01% Briji35).

[3] = biological target: GAK (amino acids Q25-N335) (Homo sapiens (Human), UniProt O14976); experiment: GAK pSENs assay
Chain of GAK (amino acids Q25-N335) (O14976 25-335): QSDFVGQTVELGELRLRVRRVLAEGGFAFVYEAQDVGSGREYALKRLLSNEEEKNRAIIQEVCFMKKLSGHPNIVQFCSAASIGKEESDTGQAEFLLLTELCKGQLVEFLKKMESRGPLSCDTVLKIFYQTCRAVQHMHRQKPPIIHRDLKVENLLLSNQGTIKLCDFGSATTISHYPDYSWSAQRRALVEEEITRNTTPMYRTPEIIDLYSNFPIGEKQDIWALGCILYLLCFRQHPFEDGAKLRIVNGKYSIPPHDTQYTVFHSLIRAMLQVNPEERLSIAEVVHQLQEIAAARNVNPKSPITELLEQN

Chain of AAK1 (amino acids T27-A365) (Q2M2I8 27-365): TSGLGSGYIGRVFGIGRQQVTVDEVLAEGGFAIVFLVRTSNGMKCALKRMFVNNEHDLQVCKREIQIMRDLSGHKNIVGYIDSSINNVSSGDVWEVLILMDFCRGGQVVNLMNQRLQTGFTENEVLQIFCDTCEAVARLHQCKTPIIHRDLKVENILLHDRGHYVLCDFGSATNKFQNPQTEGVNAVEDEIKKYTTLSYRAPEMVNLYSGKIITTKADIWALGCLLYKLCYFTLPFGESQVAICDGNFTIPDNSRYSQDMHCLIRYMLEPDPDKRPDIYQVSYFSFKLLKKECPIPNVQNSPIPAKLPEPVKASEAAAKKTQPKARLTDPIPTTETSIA

| Compound | AAK1:GAK pSENs Selectivity [1] | IC50 [2] | IC50 [3] |
| --- | --- | --- | --- |
| CC1(OC(=O)N2CCN(c3ccn4ncc(-c5cccnc5OC5CCC5)c4n3)CC2)COC1 [Compound I-17, (3-Methyloxetan-3-yl) 4-[3-[2-(cyclobutoxy)-3-pyridyl]pyrazolo[1,5-a]pyrimidin-5-yl]piperazine-1-carboxylate] | B (B: 0.016-0.075) | > 1500 nM | > 1500 nM |
| CC1(OC(=O)N2CCN(c3ccn4ncc(-c5cccnc5OCC5CCC5)c4n3)CC2)COC1 [Compound I-19, 3-Methyloxetan-3-yl 4-(3-(2-(cyclobutylmethoxy)pyridin-3-yl)pyrazolo[1,5-a]pyrimidin-5-yl)piperazine-1-carboxylate] | D (D: 0.16-1.00) | > 1500 nM | > 1500 nM |
| CC1(OC(=O)N2CCN(c3ccn4ncc(-c5cccnc5OCC5COC5)c4n3)CC2)COC1 [Compound I-20] | D (D: 0.16-1.00) | > 1500 nM | – |
| CC(C)Oc1ncccc1-c1cnn2ccc(N3CCN(C(=O)O[C@@]4(C)CCNC4)CC3)nc12 [Compound I-21, [(3S)-3-Methylpyrrolidin-3-yl]4-[3-(2-isopropoxy-3-pyridyl)pyrazolo[1,5-a]pyrimidin-5-yl]piperazine-1-carboxylate] | B (B: 0.016-0.075) | > 1500 nM | – |
| O=C1C[C@H](OC(=O)N2CCN(c3ccn4ncc(-c5cccnc5NC5CNC5)c4n3)CC2)CN1 [Compound I-49, (S)-5-oxopyrrolidin-3-yl 4-(3-(2-(azetidin-3-ylamino)pyridin-3-yl)pyrazolo[1,5a]pyrimidin-5-yl)piperazine-1-carboxylate] | – | > 1500 nM | – |
| C[C@@]1(OC(=O)N[C@H]2CCN(c3ccn4ncc(-c5cccnc5OC5CC5)c4n3)C2)CCNC1 [Compound I-57, (R)-3-methylpyrrolidin-3-yl ((S)-1-(3-(2-cyclopropoxypyridin-3-yl)pyrazolo[1,5-a]pyrimidin-5-yl)pyrrolidin-3-yl)carbamate] | C (C: 0.076-0.15) | > 1500 nM | – |
| O=C(O[C@H]1CO[C@H]2OCC[C@H]21)N1CCN(c2ccn3ncc(-c4cnccn4)c3n2)CC1 [Compound I-66, [(3aS,4R,6aR)-2,3,3a, 4,5,6a-hexahydrofuro[2,3-b]furan-4-yl]-4-(3-pyrazin-2-ylpyrazolo[1,5-a]pyrimidin-5-yl)piperazine-1-carboxylate] | D (D: 0.16-1.00) | > 1500 nM | – |
| [2H]C([2H])([2H])N1C[C@@H](OC(=O)N2CCN(c3ccn4ncc(-c5cccnc5OC5CC5)c4n3)CC2)CC1=O [Compound I-113, [(3S)-5-oxo-1-(trideuteriomethyl)pyrrolidin-3-yl]4-[3-[2-(cyclopropoxy)-3-pyridyl]pyrazolo[1,5-a]pyrimidin-5-yl]piperazine-1-carboxylate] | A (A: ≤0.015) | – | > 1500 nM |
| [2H]C([2H])([2H])N1C[C@@H](OC(=O)N2CCN(c3nc4c(-c5cccnc5OC5CC5)cnn4cc3F)CC2)CC1=O [Compound I-116, [(3S)-5-oxo-1-(trideuteriomethyl)pyrrolidin-3-yl]4-[3-[2-(cyclopropoxy)-3-pyridyl]-6-fluoro-pyrazolo[1,5-a]pyrimidin-5-yl]piperazine-1-carboxylate] | A (A: ≤0.015) | – | > 1500 nM |
| [2H]C([2H])([2H])N1C[C@@H](OC(=O)N2CCN(c3nc4c(-c5cc(F)cnc5OC5CC5)cnn4cc3F)CC2)CC1=O [Compound I-118, [(3S)-5-oxo-1-(trideuteriomethyl)pyrrolidin-3-yl]4-[3-[2-(cyclopropoxy)-5-fluoro-3-pyridyl]-6-fluoro-pyrazolo[1,5-a]pyrimidin-5-yl]piperazine-1-carboxylate] | A (A: ≤0.015) | – | > 1500 nM |
| CN1C[C@@H](OC(=O)N2CCN(c3ccn4ncc(-c5cccnc5OC5CCOC5)c4n3)CC2)CC1=O (some centres unmarked) [Compound I-119] | B (B: 0.016-0.075) | – | > 1500 nM |
| CN1C[C@@H](OC(=O)N2CCN(c3nc4c(-c5cccnc5OC5CCOC5)cnn4cc3F)CC2)CC1=O (stereo partly drawn) [Compound I-120, [(3S)-1-methyl-5-oxo-pyrrolidin-3-yl]4-[6-fluoro-3-(2-tetrahydrofuran-3-yloxy-3-pyridyl)pyrazolo[1,5-a]pyrimidin-5-yl]piperazine-1-carboxylate] | B (B: 0.016-0.075) | – | > 1500 nM |
| CN1C[C@@H](OC(=O)N2CCN(c3nc4c(-c5cccnc5OC5CCCC5)cnn4cc3F)CC2)CC1=O [Compound I-121, [(3S)-1-methyl-5-oxo-pyrrolidin-3-yl]-4-[3-[2-(cyclopentoxy)-3-pyridyl]-6-fluoro-pyrazolo[1,5-a]pyrimidin-5-yl]piperazine-1-carboxylate] | B (B: 0.016-0.075) | – | > 1500 nM |
| CN1C[C@@H](OC(=O)N2CCN(c3nc4c(-c5cccnc5OC5CCOCC5)cnn4cc3F)CC2)CC1=O [Compound I-122] | A (A: ≤0.015) | – | > 1500 nM |

The remaining lines, values ahead:

| AAK1:GAK pSENs Selectivity [1] | IC50 [2] | IC50 [3] | Compound |
| --- | --- | --- | --- |
| B (B: 0.016-0.075) | > 1500 nM | > 1500 nM | O=C1NCC[C@H]1OC(=O)N1CCN(c2ccn3ncc(-c4cccnc4OC4CC4)c3n2)CC1 [Compound I-23, [(3R)-2-oxopyrrolidin-3-yl]-4-[3-[2-(cyclopropoxy)-3-pyridyl]pyrazolo[1,5-a]pyrimidin-5-yl]piperazine-1-carboxylate] |
| B (B: 0.016-0.075) | > 1500 nM | > 1500 nM | O=C1NCC[C@@H]1OC(=O)N1CCN(c2ccn3ncc(-c4cccnc4OC4CC4)c3n2)CC1 [Compound I-24, [(3S)-2-Oxopyrrolidin-3-yl]-4-[3-[2-(cyclopropoxy)-3-pyridyl]pyrazolo[1,5-a]pyrimidin-5-yl]piperazine-1-carboxylate] |
| D (D: 0.16-1.00) | > 1500 nM | > 1500 nM | O=C(O[C@@H]1CC(=O)N(C2CCNCC2)C1)N1CCN(c2ccn3ncc(-c4cccnc4OC4CC4)c3n2)CC1 [Compound I-33, (R)-5-Oxo-1-(piperidin-4-yl)pyrrolidin-3-yl 4-(3-(2-cyclopropoxypyridin-3-yl)pyrazolo[1,5-a]pyrimidin-5-yl)piperazine-1-carboxylate] |
| B (B: 0.016-0.075) | > 1500 nM | > 1500 nM | C[C@H]1CN(c2ccn3ncc(-c4cccnc4OC4CC4)c3n2)CCN1C(=O)O[C@@H]1CNC(=O)C1 [Compound I-40, [(3S)-5-Oxopyrrolidin-3-yl](2S)-4-[3-[2-(cyclopropoxy)-3-pyridyl]pyrazolo[1,5-a]pyrimidin-5-yl]-2-methyl-piperazine-1-carboxylate] |
| B (B: 0.016-0.075) | > 1500 nM | > 1500 nM | N#C[C@@H]1CN(c2ccn3ncc(-c4cccnc4OC4CC4)c3n2)CCN1C(=O)O[C@@H]1CNC(=O)C1 [Compound I-41, (S)-5-Oxopyrrolidin-3-yl (S)-2-cyano-4-(3-(2-cyclopropoxypyridin-3-yl)pyrazolo[1,5-a]pyrimidin-5-yl)piperazine-1-carboxylate] |
| E (E: >1.00) | > 1500 nM | – | O=C1C[C@H](OC(=O)N2CCN(c3ccn4ncc(-c5cccnc5NC5CCC5)c4n3)CC2)CN1 [Compound I-46, [(3S)-5-oxopyrrolidin-3-yl]4-[3-[2-(cyclobutylamino)-3-pyridyl]pyrazolo[1,5-a]pyrimidin-5-yl]piperazine-1-carboxylate] |
| B (B: 0.016-0.075) | – | > 1500 nM | CC(C)N1C[C@@H](OC(=O)N2CCN(c3ccn4ncc(-c5cccnc5OC5CC5)c4n3)CC2)CC1=O [Compound I-114, [(3S)-1-isopropyl-5-oxo-pyrrolidin-3-yl]-4-[3-[2-(cyclopropoxy)-3-pyridyl]pyrazolo[1,5-a]pyrimidin-5-yl]piperazine-1-carboxylate] |
| A (A: ≤0.015) | – | > 1500 nM | COCCN1C[C@@H](OC(=O)N2CCN(c3ccn4ncc(-c5cccnc5OC5CC5)c4n3)CC2)CC1=O [Compound I-115, [(3S)-1-(2-methoxyethyl)-5-oxo-pyrrolidin-3-yl]-4-[3-[2-(cyclopropoxy)-3pyridyl]pyrazolo[1,5-a]pyrimidin-5-yl]piperazine-1-carboxylate] |

Reference: US20250270222A1, “AP2 ASSOCIATED KINASE 1 INHIBITORS AND USES THEREOF” (Satellos Bioscience Inc., priority 2023, published 2025)
